Measurements published in patent US5468760A, “Aralkyl-N-hydroxyureas as inhibitors of 5-lipoxygenase and oxidation of low density lipoprotein” (American Home Products Corporation, priority 1993, dated 1995).

How the values were obtained:
[1] = target: T1, 5-Lipoxygenase (Homo sapiens, UniProt P09917); assay: Inhibition of 5-Lipoxygenase in Human Whole Blood (LTB4, calcium ionophore A23187); format: cell-based; settings: 1 μM
T1 construct: endogenous in cells; host or cells: human whole blood from male donors (results expressed per 10^6 neutrophils)
T1 sequence (P09917 1-674): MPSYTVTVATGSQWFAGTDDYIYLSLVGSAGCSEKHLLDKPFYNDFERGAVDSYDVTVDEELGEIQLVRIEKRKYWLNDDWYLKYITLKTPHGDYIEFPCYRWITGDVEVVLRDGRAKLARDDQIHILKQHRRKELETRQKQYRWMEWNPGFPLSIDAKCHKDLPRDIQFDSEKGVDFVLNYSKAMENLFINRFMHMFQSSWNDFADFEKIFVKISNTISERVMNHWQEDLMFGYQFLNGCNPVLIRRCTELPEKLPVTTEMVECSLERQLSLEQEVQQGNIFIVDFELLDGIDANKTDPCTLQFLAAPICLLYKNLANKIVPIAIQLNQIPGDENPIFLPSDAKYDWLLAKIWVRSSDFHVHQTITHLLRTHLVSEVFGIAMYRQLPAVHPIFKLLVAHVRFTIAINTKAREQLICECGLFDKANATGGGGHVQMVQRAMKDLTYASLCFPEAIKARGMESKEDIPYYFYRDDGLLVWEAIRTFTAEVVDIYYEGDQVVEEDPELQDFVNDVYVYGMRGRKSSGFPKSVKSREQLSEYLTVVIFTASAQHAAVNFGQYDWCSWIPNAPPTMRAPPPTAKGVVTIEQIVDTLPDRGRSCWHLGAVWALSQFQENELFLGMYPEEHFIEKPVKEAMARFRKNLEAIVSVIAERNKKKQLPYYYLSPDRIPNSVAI
Protocol: 1. Inhibition of 5-Lipoxygenase in Human Whole Blood
Blood is obtained in 50-100 ml quantities from male donors. White blood cell counts and differentials are made. Two ml of blood are placed in a 15 ml polypropylene test tube. Test compounds are solubilized in dimethylsulfoxide and diluted in 1:10 in 10% bovine serum albumin in phosphate buffered saline, pH 7.4 resulting in a final dimethylsulfoxide concentration of 0.1% in the blood. Then, solutions of test compounds are added to the blood in a shaking water bath at 37° C. for 10 minutes prior to the addition of 30 μM calcium ionophore (A23 187, Sigma). After ionophore administration, whole blood samples are mixed and incubated for 20 minutes at 37° C. in a shaking water bath. Incubation is terminated by placing samples in an ice bath and immediately adding ethylene glycol-bis-(β-aminoethyl ether)-N,N,N',N'-tetraaceticacid (10 mM). Samples are mixed and centrifuged at 1200 x g for 15 minutes at 4° C. Preparation of samples for evaluation by RIA or ELISA is carried out by the following protocol. Plasma is removed from sample tubes, placed in 15 ml polypropylene test tubes containing 8 ml methanol, and then vortexed to precipitate protein. Samples are stored at -70° C. overnight. The next day, samples are centrifuged at 200 x g for 15 minutes at 4° C. to pellet the precipitate. Samples are dried in a Savant SpeedVac Concentrator, Model SVC 200H, reconstituted to original volume with ice cold RIA or ELISA buffer, and stored at -70° C. until assayed. The assay for eicosanoids (LTB4, TxB2, and PGE2) is performed as described by the manufacturer of the [^3 H]-RIA kit or ELISA kit (LTB4 -Amersham, TxB2 and PGE2 -Caymen Chemical).
The total eicosanoid level in 2 ml of blood is calculated and reported as ng/10^6 neutrophils. Significance is determined by a one-way analysis of variance with least significant difference (LSD) comparisons to control (p≤0.05) and IC50 's (μM) are determined by regression analysis (Finney, 1978). Drug effects are expressed as percent change from control values.

[2] = system: Lipoxygenase; assay: Ex-Vivo Measurement of Lipoxygenase Inhibition in Orally Dosed Rats (LTB4); set-up: species or system rat (male Sprague Dawley); settings: p.o., pretreatment period 6 hr
Protocol: 2. Ex-Vivo Measurement of Lipoxygenase Inhibition in Orally Dosed Rats
Male Sprague Dawley rats (Charles River) weighing between 180 g and 200 g were dosed orally with an invention compound (1-25 mg/kg, po) suspended in 0.5% Tween 80®. After an interval of 3 or 6 hours, the rats were anesthetized with metofane (n=4/group) and blood collected in heparinized tubes. White blood cell counts and differentials were made. One ml of blood from each animal was placed in a 5 ml plastic tube in a shaker bath at 37° C. A23187 at a final concentration of 10 μM was added to the blood and the blood vortexed and incubated for 15 min at […] with gentle shaking. Incubation was terminated by vortexing sample and centrifuging immediately at 1200 xG for 15 min at 4° C. The plasma was transferred to 15 ml plastic tubes each containing 8 ml of methanol to precipitate protein followed by vortexing. The samples were stored at -70 ° C. overnight and the next day the samples were centrifuged at 800 xG for 15 min to pellet the precipitate. The samples were dried in a Savant SpeedVac Concentrator Model SVC 200H and reconstituted to the original volume with cold RIA or ELISA buffer. The reconstituted samples were stored at -70° C. until assayed. The assay for LTB4 was performed according to the directions of the [^3 H]RIA kit or ELISA kit (Seragen). The total metabolite level in 1 ml of blood is calculated and reported as ng/10^6 neutrophils. Significance is determined by a one-way analysis of variance with LSD comparisons to control (p≤0.05).

[3] = system: LTB4 Synthesis; assay: Reverse Passive Arthus Reaction (pleurisy), LTB4 in pleural exudate; format: in vivo, rat (male Lewis); settings: 10 mg/kg, p.o.
Protocol: 3. Reverse Passive Arthus Reaction
A reverse passive Arthus reaction is induced in the pleural cavity of male Lewis rats (150-200 g; fasted overnight prior to use) by the intravenous administration of bovine serum albumin (BSA; 4 mg/0.2 ml) followed 30 minutes later by the injection of rabbit anti-BSA (1 mg/0.2 ml; lyophilized IgG fraction; Organon Teknika, West Chester, Pa.) into the right pleural space under halothane anesthesia. Drugs or vehicle (0.5% Tween-80) control are administered orally in a volume of 1 ml/100 g body weight at 1 hour prior to the anti-BSA. Animals are sacrificed at either the time of peak eicosanoid production (i.e. 5 minutes after anti-BSA for immunoreactive TxB2, 10 minutes for immunoreactive LTB4, 20 minutes for immunoreactive LTC4) or at the time of peak neutrophil infiltration (4 hours after anti-BSA) by CO2 inhalation. The pleural cavity is then exposed., the fluid exudate removed by gentle vacuum aspiration and the volume of exudate is recorded. For the determination of cellular infiltration, the pleural cavity is rinsed with 3 ml of 0.1% EDTA in sterile saline, and the recovered wash is pooled with the exudate. Cell number is determined on a model ZBI Coulter counter. For determination of eicosanoid production, undiluted pleural exudate is microfuged and the supernatant is extracted with ethanol (8-10 times volume). Extracts are either stored at -20° C., or are evaporated to dryness under a stream of N2 and reconstituted in radioimmunoassay (RIA) buffer.
Eicosanoids are quantitated by RIA according to the procedure specified by the RIA kit manufacturer (Advanced Magnetics, Cambridge, Mass.). Briefly, 100 μl of ^3 H-labeled eicosanoid and 100 μl of specific antibody are sequentially added to 100 μl of extracted pleural exudate in BGG-phosphate buffer which contains 0.01M phosphate, 0.1% bovine gamma globulin and 0.1% sodium azide at pH 7.0. Antibody-bound eicosanoid is separated from unbound eicosanoid by the addition of 750 μl of dextran (0.4%)-coated charcoal (Norit A) containing 0.1% sodium azide. The mixture is centrifuged at 2000 RPM at 5° C. for 15 minutes to pellet the charcoal and adsorbed unbound eicosanoid. Antibody-bound labeled eicosanoid is quantitated by counting in a liquid scintillation counter, and is correlated to concentration by a standard curve.

[4] = system: LDL; settings: cell mediated and Cu^+2 mediated; cited from earlier work
[5] = system: atherosclerotic lesions; settings: WHHL rabbits; cited from earlier work
[6] = system: LT-dependent bronchoconstriction; assay: Inhibition of Bronchoconstriction in Guinea Pigs Induced by Exogenously Administered Antigen; format: in vivo, guinea pig (male); settings: Cavia porcellus, 5 min, 5 min post-antigen challenge
Protocol: 4. Inhibition of Brochoconstriction in Guinea Pigs Induced by Exogenously Administered Antigen
Male guinea pigs (Charles River, Wilmington, Mass.) were sensitized 3-4 weeks prior to antigen challenge by administration of 2 i.m. injections of ovalbumin, 1 into each hind limb (35 mg total). Sensitized animals (500-600 g) were fasted overnight prior to experimentation. Conscious animals were then dosed p.o. with drug or vehicle alone (0.5% Tween 80 in H2 O) at the indicated times prior to antigen challenge, or anesthetized animals were dosed i.v. with drug or vehicle alone (DMSO) 5 min prior to antigen challenge. Animals were anesthetized by urethane (2.8 g/kg i.p.). A carotid artery and jugular vein were cannulated to allow for the monitoring of blood pressure and the administration of drugs, respectively. The trachea was then cannulated and connected to a Harvard Apparatus rodent ventilator (S. Natick, Mass.). Spontaneous respiration was abolished by the administration of succinylcholine (2.5 mg/kg i.v.). The animals were then ventilated with room air at a rate of 65 breaths per min. Airway inflation pressure was measured using a Statham pressure transducer (Gould Instruments, Cleveland, Ohio) connected to the tracheal cannula via a side-arm and recorded on a Grass Instruments recorder (Quincy, Mass.). The tidal volume (approximately 10 cc/kg) was adjusted to give a baseline inflation pressure of 8-10 cm H2 O at end inspiration. Animals were then allowed 20 min to stabilize.
Following the stabilization period, animals were given i.v. injections of pyrilamine (5 mg/kg), propranolol (0.1 mg/kg) and indomethacin (10 mg/kg) at 15, 10 and 5 min, respectively, prior to antigen challenge. This pretreatment results in an LT-dependent bronchoconstriction following antigen challenge, which was accomplished by i.v. administration of ovalbumin (10 mg/kg). Only one bronchoconstriction per animal was induced. End-inspiratory inflation pressure (in cm H2 O over baseline) was measured at 5 min post-antigen challenge. A mean value and standard error for the % inhibition of control bronchoconstriction in each drug-treated group was then calculated.

Compound | inhibition at 1 µM [1] | % Inhibition of LTB4 ([2]; 5 mg/kg) | % Inhibition LTB4 Synthesis [3] | inhibition of oxidative modification of LDL [4] | inhibition of formation of atherosclerotic lesions [5] | % Inhibition of LTB4 ([2]; 10 mg/kg) | inhibition in vivo at 10 mg/kg ([6]; iv, 10 mg/kg i.v.) | inhibition in vivo at 25 mg/kg ([6]; po, 25 mg/kg p.o.)
Cc1oc(-c2ccc(C(F)(F)F)cc2)nc1COc1cccc(CN(O)C(N)=O)c1 [Example 2, 1-Hydroxy-1-[3-[5-methyl-2-(4-trifluoromethyl-phenyl)-oxazol-4-ylmethoxy]-benzyl]-urea] | 48% | 45% | 59% |  |  |  |  | 
CC(C)(Sc1cc(C(C)(C)C)c(O)c(C(C)(C)C)c1)Sc1cc(C(C)(C)C)c(O)c(C(C)(C)C)c1 [Probucol] |  |  |  | inhibits both cell mediated and Cu^+2 mediated oxidative modification of LDL | inhibit the formation of atherosclerotic lesions in WHHL rabbits |  |  | 
NC(=O)N(O)Cc1cccc(OCc2coc(-c3ccc(F)cc3)n2)c1 [Example 3, 1-[3-[2-(4-fluoro-phenyl)-oxazol-4-ylmethoxy]-benzyl]-1-hydroxy-urea] | 74% |  |  |  |  | 85% | 84% | 26%
